Experimental data as given in the NIST ThermoML archive (doi:10.1021/acs.jced.7b00039).
± gives the expanded uncertainty stated by the source.

Legend:
[1] = wn = mass fraction of the nth substance listed; details: 100 kPa, Liquid; for viscosity: Cone and plate viscometry; for mass density: Vibrating tube method
[2] = 100 kPa, Liquid; for viscosity: Cone and plate viscometry; for mass density: Vibrating tube method

O [water] + CC(CC(C)(C)C)CP(=O)([O-])CC(C)CC(C)(C)C.CCCCCCCCCCCCCC[P+](CCCCCC)(CCCCCC)CCCCCC
[1], w1 = 1
Details | mass density [kg/m3] | viscosity [mPa·s]
298 K | – | 0.89 ± 0.089
310 K | 993.35 ± 9.9 | 0.686 ± 0.069
318 K | – | 0.581 ± 0.058

O [water]
[2]
Details | mass density [kg/m3] | viscosity [mPa·s]
298 K | – | 0.89 ± 0.089
310 K | 993.35 ± 9.9 | 0.686 ± 0.069
318 K | – | 0.581 ± 0.058

CC(CC(C)(C)C)CP(=O)([O-])CC(C)CC(C)(C)C.CCCCCCCCCCCCCC[P+](CCCCCC)(CCCCCC)CCCCCC
[2]
Details | mass density [kg/m3] | viscosity [mPa·s]
298 K | 883.68 ± 9.7 | 1023 ± 120
310 K | 876.52 ± 9.6 | 521 ± 59
318 K | 871.79 ± 9.5 | 345 ± 38

CC(CC(C)(C)C)CP(=O)([O-])CC(C)CC(C)(C)C.CCCCCCCCCCCCCC[P+](CCCCCC)(CCCCCC)CCCCCC + O
[1]
Details | mass density, 298 K [kg/m3] | mass density, 310 K [kg/m3] | mass density, 318 K [kg/m3] | viscosity, 298 K [mPa·s] | viscosity, 310 K [mPa·s] | viscosity, 318 K [mPa·s]
w2 = 0.00047 | 884.09 ± 9.7 | 876.93 ± 9.6 | 872.2 ± 9.5 | 1023 ± 120 | 521 ± 59 | 345 ± 38
w2 = 0.00122 | 884.98 ± 9.7 | 877.82 ± 9.6 | 873.07 ± 9.5 | 996 ± 120 | 512 ± 58 | 337 ± 37
w2 = 0.00289 | 886.11 ± 9.7 | 878.88 ± 9.6 | 874.07 ± 9.5 | 924 ± 110 | 476 ± 53 | 313 ± 34
w2 = 0.00582 | 886.78 ± 9.7 | 879.48 ± 9.6 | 874.64 ± 9.5 | 796 ± 92 | 401 ± 45 | 263 ± 28
w2 = 0.0147 | 887.75 ± 9.7 | 880.36 ± 9.6 | 875.46 ± 9.5 | 646 ± 74 | 321 ± 35 | 210 ± 23
w2 = 0.0317 | 890.65 ± 9.7 | 883.04 ± 9.6 | 878.08 ± 9.5 | 431 ± 48 | 211 ± 23 | 137 ± 14
w2 = 0.081 | 898.06 ± 9.6 | 890.2 ± 9.5 | 884.95 ± 9.4 | 261 ± 29 | 125 ± 13 | 81.6 ± 8.6
w2 = 0.142 | – | – | 893.78 ± 9.4 | – | – | 55.6 ± 6
w2 = 0.146 | – | 900.11 ± 9.5 | – | – | 79.7 ± 8.6 | –
w2 = 0.154 | – | – | – | 142 ± 15 | – | –
w2 = 0.156 | 909.07 ± 9.6 | – | – | 142 ± 15 | – | –
